What was measured:
[1] = psychostimulant effect in rats: modified jumping test; format: in vivo, rat
[2] = effect exerted on food intake, in rats; format: in vivo, rat
noradrenaline release = conditions: background; cited from earlier work
[3] = psychostimulant effect in rats: shuttle-box test; format: in vivo, rat
nictitating membrane = assay: noradrenaline releasing effect in cats (in vivo), contraction of the nictitating membrane; conditions: anesthetized cat, PEA i.p.
[4] = tested on: neuronal uptake of indirectly acting endogenic sympathomimetic amines; conditions: background; cited from earlier work

CC(N)Cc1ccccc1 (stereo not drawn) [amphetamine, reference compound]
learning and retention ([1]; larger doses, above 3 mg/kg): deteriorate
learning and retention ([1]; small doses, up to 1-2 mg/kg): improve
food intake ([2]; rats fasted for 96 hours, 2-5 mg/kg, for 3-4 hours): completely inhibited
anorectic effect ([2]; well-fed satiated rats, 1 mg/kg): exhibits an anorectic effect
noradrenaline releasing effect (noradrenaline release): strong and long lasting
intersignal reaction ([3]; 1 mg/kg s.c. daily): disproportionately high intersignal reaction
acquisition of a conditioned reaction and its retention ([3]; 1 mg/kg s.c. daily, five days of observation): significantly increases the acquizition of a conditioned reaction and its retention
general motility ([3]; 5-10 mg/kg): extremely high general motility increasing effect
contraction of the nictitating membrane (nictitating membrane): contraction of long duration

CN[C@@H](C)Cc1ccccc1 [methamphetamine]
noradrenaline releasing effect (noradrenaline release): strong and long lasting
inhibition of neuronal uptake of indirectly acting endogenic sympathomimetic amines [4]: inhibits the neuronal uptake of indirectly acting endogenic sympathomimetic amines to a significant extent
contraction of the nictitating membrane (nictitating membrane): contraction of long duration

From patent US5075338A (priority 1986, dated 1991)
